How the values were obtained:
[1] = tested on: T47D ER+HER2- breast cancer xenograft; assay: T47D xenograft efficacy study; assay type: in vivo, mouse; conditions: Alpelisib 50 mg/kg QD, Day 20
[2] = tested on: pAKT (S473) in CAL33 cells; assay: pAKT (S473) HTRF; assay type: cell-based; conditions: Homo sapiens, CAL-33; CAL33, H1047R; 1 hour; read-out: pAKT HTRF GMean IC50 (95% CI)
Protocol: (§1) A 384-well phospho-AKT (S473) HTRF (Homogenous Time-Resolve Fluorescence; PerkinElmer, #64AKSPEH) assay was used for target engagement. Each well was seeded with cell numbers indicated in Supplementary Table S3 in a volume of 12.5 μL in complete, phenol red-free media and then treated for 1 hour at 37°C with 5% CO2 before reading on a PHERAstar plate reader.

[3] = tested on: pAKT (S473) in OAW42 cells; assay: pAKT (S473) HTRF; assay type: cell-based; conditions: Homo sapiens, OAW-42; OAW42, H1047L; 1 hour; read-out: pAKT HTRF GMean IC50 (95% CI)
Protocol: as §1

[4] = tested on: pAKT (S473) in CAL148 cells; assay: pAKT (S473) HTRF; assay type: cell-based; conditions: Homo sapiens, CAL-148; CAL148, H1047R + D350N; 1 hour; read-out: pAKT HTRF GMean IC50 (95% CI)
Protocol: as §1

[5] = tested on: pAKT (S473) in HCC1954 cells; assay: pAKT (S473) HTRF; assay type: cell-based; conditions: Homo sapiens; HCC1954, H1047R; 1 hour; read-out: pAKT HTRF GMean IC50 (95% CI)
Protocol: as §1

[6] = tested on: pAKT (S473) in NCIH1048 cells; assay: pAKT (S473) HTRF; assay type: cell-based; conditions: Homo sapiens, NCI-H1048; NCIH1048, H1047R + K111R; 1 hour; read-out: pAKT HTRF GMean IC50 (95% CI)
Protocol: as §1

[7] = tested on: pAKT (S473) in BT20 cells; assay: pAKT (S473) HTRF; assay type: cell-based; conditions: Homo sapiens, BT-20; BT20, H1047R + P539R; 1 hour; read-out: pAKT HTRF GMean IC50 (95% CI)
Protocol: as §1

[8] = tested on: pAKT (S473) in DETROIT562 cells; assay: pAKT (S473) HTRF; assay type: cell-based; conditions: Homo sapiens, Detroit 562; DETROIT562, H1047R; 1 hour; read-out: pAKT HTRF GMean IC50 (95% CI)
Protocol: as §1

[9] = tested on: pAKT (S473) in SKBR3 cells; assay: pAKT (S473) HTRF; assay type: cell-based; conditions: Homo sapiens, SK-BR-3; SKBR3, WT PI3Kα; 1 hour; read-out: pAKT HTRF GMean IC50 (95% CI)
Protocol: as §1

[10] = tested on: pAKT (S473) in EFM19 cells; assay: pAKT (S473) HTRF; assay type: cell-based; conditions: Homo sapiens, EFM-19; EFM19, H1047L; 1 hour; read-out: pAKT HTRF GMean IC50 (95% CI)
Protocol: as §1

[11] = tested on: GP2d colon cancer xenograft; assay: GP2d xenograft efficacy study; assay type: in vivo, mouse
[12] = tested on: PI3Kα-mutant, ER+HER2- metastatic breast cancer; conditions: alpelisib in combination with fulvestrant, median follow-up 20 months; cited from earlier work
[13] = tested on: NCI-H1048 lung carcinoma xenograft; assay: NCI-H1048 xenograft efficacy study; assay type: in vivo, mouse; conditions: Alpelisib 50 mg/kg QD, Day 23

Question: For `Cc1nc(NC(=O)N2CCC[C@H]2C(N)=O)sc1-c1ccnc(C(C)(C)C(F)(F)F)c1` [alpelisib], which “TGI (%)” value [1] is on record?
Answer: 100%

Question: What about the IC50 [2] of the same compound?
Answer: 71 nM

Question: What about the IC50 [3] of the same compound?
Answer: 82 nM

Question: And the IC50 [4]?
Answer: 268 nM

Question: And the IC50 [5]?
Answer: 256 nM

Question: What about the IC50 [6] of the same compound?
Answer: 28 nM

Question: And the IC50 [7]?
Answer: 136 nM

Question: What about the IC50 [8] of the same compound?
Answer: 125 nM

Question: And the IC50 [9]?
Answer: 41 nM

Question: And the IC50 [10]?
Answer: 43 nM

Question: What about the “TGI (%)” value ([11]; Alpelisib 50 mg/kg QD, Day 28) of the same compound?
Answer: 79%

Question: What about the “tumor regressions (waterfall plot)” value ([11]; STX-478 100 mg/kg q.d., alpelisib 50 mg/kg q.d.) of the same compound?
Answer: no regression

Question: What about the progression-free survival time [12] of the same compound?
Answer: 11.0 months

Question: What about the “TGI (%)” value [13] of the same compound?
Answer: 87%

From paper PMC10618743 (Cancer Discovery, 2023)
